From PubChem BioAssay (NCI)
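Compound exposure: 48 hours, 5 concentrations, 96-well plates. At the GI50, growth is halved. TGI denotes the concentration required for complete inhibition of growth.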

Experiments:
Assay in all cases: DTP human tumour cell line panel, 48 h
[1] = tested on: 786-0 renal
[2] = tested on: A498 renal
[3] = tested on: A549 NSCLC
[4] = tested on: ACHN renal
[5] = tested on: BT-549 breast
[6] = tested on: CAKI-1 renal
[7] = tested on: CCRF-CEM leukemia
[8] = tested on: COLO 205 colon
[9] = tested on: DU-145 prostate
[10] = tested on: EKVX NSCLC
[11] = tested on: HCC-2998 colon
[12] = tested on: HCT-116 colon
[13] = tested on: HCT-15 colon
[14] = tested on: HL-60(TB) leukemia
[15] = tested on: HOP-62 NSCLC
[16] = tested on: HOP-92 NSCLC
[17] = tested on: HS 578T breast
[18] = tested on: HT29 colon
[19] = tested on: IGROV1 ovarian
[20] = tested on: K-562 leukemia
[21] = tested on: KM12 colon
[22] = tested on: LOX IMVI melanoma
[23] = tested on: M14 melanoma
[24] = tested on: MCF7 breast
[25] = tested on: MDA-MB-231 breast
[26] = tested on: MDA-MB-435
[27] = tested on: MOLT-4 leukemia
[28] = tested on: NCI-H23 lung
[29] = tested on: NCI-H460 lung
[30] = tested on: NCI-H522 lung
[31] = tested on: NCI/ADR-RES ovarian
[32] = tested on: OVCAR-3 ovarian
[33] = tested on: OVCAR-4 ovarian
[34] = tested on: OVCAR-5 ovarian
[35] = tested on: OVCAR-8 ovarian
[36] = tested on: PC-3 prostate
[37] = tested on: RPMI-8226 leukemia
[38] = tested on: RXF 393 renal
[39] = tested on: SF-268 CNS
[40] = tested on: SF-295 CNS
[41] = tested on: SF-539 CNS
[42] = tested on: SK-MEL-2 melanoma
[43] = tested on: SK-MEL-28 melanoma
[44] = tested on: SK-MEL-5 melanoma
[45] = tested on: SK-OV-3 ovarian
[46] = tested on: SN12C renal
[47] = tested on: SNB-19 CNS
[48] = tested on: SNB-75 CNS
[49] = tested on: SR leukemia
[50] = tested on: SW-620 colon
[51] = tested on: T-47D breast
[52] = tested on: TK-10 renal
[53] = tested on: U251 CNS
[54] = tested on: UACC-257 melanoma
[55] = tested on: UACC-62 melanoma
[56] = tested on: UO-31 renal

C=C1CO[C@@H]2C[C@@H]1CC/C(C)=C/CC/C(C)=C/CC[C@@]2(C)O
GI50 [1]: 17.5 µM | TGI [1]: 32.9 µM | GI50 [2]: 35.8 µM | TGI [2]: > 76.2 µM | GI50 [3]: 15.4 µM | TGI [3]: 33 µM | GI50 [4]: 18.8 µM | TGI [4]: 34 µM | GI50 [5]: 24.6 µM | TGI [5]: 51.5 µM | GI50 [6]: 20.3 µM | TGI [6]: 41.8 µM | GI50 [7]: 14.7 µM | TGI [7]: 33.9 µM | GI50 [8]: 27.3 µM | TGI [8]: > 60.9 µM | GI50 [9]: 18.5 µM | TGI [9]: 38.3 µM | GI50 [10]: 22.4 µM | TGI [10]: 45.2 µM | GI50 [11]: 18.3 µM | TGI [11]: 36.4 µM | GI50 [12]: 17.2 µM | TGI [12]: 31.4 µM | GI50 [13]: 19.9 µM | TGI [13]: 38 µM | GI50 [14]: 1.17 µM | TGI [14]: 11.2 µM | GI50 [15]: 17.1 µM | TGI [15]: 32.5 µM | GI50 [16]: 15.9 µM | TGI [16]: 44.9 µM | GI50 [17]: 25.7 µM | TGI [17]: > 83.4 µM | GI50 [18]: 28.4 µM | TGI [18]: 94.1 µM | GI50 [19]: 3.96 µM | TGI [19]: 28.8 µM | GI50 [20]: 15.1 µM | TGI [20]: > 46.2 µM | GI50 [21]: 17.4 µM | TGI [21]: 36 µM | GI50 [22]: 2.25 µM | TGI [22]: 21.4 µM | GI50 [23]: 17.9 µM | TGI [23]: 32.9 µM | GI50 [24]: 25.4 µM | TGI [24]: > 63.6 µM | GI50 [25]: 15.5 µM | TGI [25]: 33.3 µM | GI50 [26]: 20.9 µM | TGI [26]: 42.2 µM | GI50 [27]: 1.26 µM | TGI [27]: 12.4 µM | GI50 [28]: 21.8 µM | TGI [28]: 44.6 µM | GI50 [29]: 24.1 µM | TGI [29]: > 68.3 µM | GI50 [30]: 21.1 µM | TGI [30]: 45.2 µM | GI50 [31]: 18.5 µM | TGI [31]: 36 µM | GI50 [32]: 24.1 µM | TGI [32]: 51.6 µM | GI50 [33]: 21.7 µM | TGI [33]: 43.4 µM | GI50 [34]: 18.7 µM | TGI [34]: 39.9 µM | GI50 [35]: 20.9 µM | TGI [35]: 44.8 µM | GI50 [36]: 15.7 µM | TGI [36]: 33.6 µM | GI50 [37]: 10.9 µM | TGI [37]: 33.9 µM | GI50 [38]: 20 µM | TGI [38]: 39.3 µM | GI50 [39]: 20.1 µM | TGI [39]: 50.5 µM | GI50 [40]: 19.6 µM | TGI [40]: 41.7 µM | GI50 [41]: 23.4 µM | TGI [41]: 43.6 µM | GI50 [42]: 27.4 µM | TGI [42]: > 64 µM | GI50 [43]: 16.8 µM | TGI [43]: 38.3 µM | GI50 [44]: 18.5 µM | TGI [44]: 34.5 µM | GI50 [45]: 24 µM | TGI [45]: 56.6 µM | GI50 [46]: 20 µM | TGI [46]: 43.7 µM | GI50 [47]: 23.3 µM | TGI [47]: 51.6 µM | GI50 [48]: 25 µM | TGI [48]: 46.3 µM | GI50 [49]: 1.71 µM | TGI [49]: 12.8 µM | GI50 [50]: 22.2 µM | TGI [50]: 45.9 µM | GI50 [51]: 18.3 µM | TGI [51]: 42.8 µM | GI50 [52]: 18.4 µM | TGI [52]: 36.2 µM | GI50 [53]: 17.9 µM | TGI [53]: 32.4 µM | GI50 [54]: 16.8 µM | TGI [54]: 39.1 µM | GI50 [55]: 18.4 µM | TGI [55]: 35.1 µM | GI50 [56]: 17.1 µM | TGI [56]: 36.5 µM
